In this assay the test system is B6C3F1 mice, ip Sarcoma M5076, median survival T/C. The assay is described as follows: NCI In Vivo Anticancer Drug Screen. Data for tumor model Sarcoma M5076 (intraperitoneal) in B6C3F1 mice. The settings on record: endpoint: median survival time, schedule: Q04DX004 (ip), higher = longer survival. In outline:
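Transplantable tumour in mice; compound-treated vs vehicle-treated groups. Read-out: survival. Value = treated/control ratio.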

The mark [1] stands for this setting: dose: 50.0 mg/kg/injection, vehicle: Klucel (hydroxypropylcellulose) (HPC).
Setting [2] is: dose: 100.0 mg/kg/injection, vehicle: Klucel (hydroxypropylcellulose) (HPC).
The mark [3] stands for this setting: dose: 200.0 mg/kg/injection, vehicle: Klucel (hydroxypropylcellulose) (HPC).
The mark [4] stands for this setting: dose: 400.0 mg/kg/injection, vehicle: Klucel (hydroxypropylcellulose) (HPC).
[5] abbreviates: dose: 12.5 mg/kg/injection, vehicle: Klucel (hydroxypropylcellulose) (HPC).
Setting [6] is: dose: 25.0 mg/kg/injection, vehicle: Klucel (hydroxypropylcellulose) (HPC).
The mark [7] stands for this setting: dose: 50.0 mg/kg/injection, vehicle: saline with Tween-80.
[8] abbreviates: dose: 100.0 mg/kg/injection, vehicle: saline with Tween-80.
[9] abbreviates: dose: 200.0 mg/kg/injection, vehicle: saline with Tween-80.
Where [10] appears, read: dose: 400.0 mg/kg/injection, vehicle: saline with Tween-80.
Setting [11] is: dose: 800.0 mg/kg/injection, vehicle: saline with Tween-80.
Setting [12] is: dose: 6.25 mg/kg/injection, vehicle: Klucel (hydroxypropylcellulose) (HPC).
The mark [13] stands for this setting: dose: 6.25 mg/kg/injection, vehicle: saline with Tween-80.
[14] abbreviates: dose: 12.5 mg/kg/injection, vehicle: saline with Tween-80.
[15] abbreviates: dose: 25.0 mg/kg/injection, vehicle: saline with Tween-80.
Setting [16] is: dose: 37.5 mg/kg/injection, vehicle: saline with Tween-80.
Where [17] appears, read: dose: 75.0 mg/kg/injection, vehicle: saline with Tween-80.
Setting [18] is: dose: 150.0 mg/kg/injection, vehicle: saline with Tween-80.

These results are taken from PubChem BioAssay AID292 (DTP/NCI, 2004).

Each structure is given as a SMILES string. Values joined by “and” are separate entries in the source; they are usually repeats but may differ in a detail not shown here. Identical values can stand only once. Inconclusive results and toxic doses are left out.

Take `Cc1ccccc1C1C(C#N)C(=O)NC(=O)C1C#N` (centres undefined): the T/C is 102 % of control under setting [1], 105 % of control under setting [2], 102 % of control under setting [3] and 98 % of control under setting [4].
As to `COc1cc2c(c(OC)c1OC)-c1ccc(OC)c(=O)cc1[C@@H](NC(C)=O)CC2`, the T/C is 106 % of control (dose: 0.38 mg/kg/injection, vehicle: saline); 101 % of control (dose: 0.54 mg/kg/injection, vehicle: saline); 112 % of control (dose: 0.75 mg/kg/injection, vehicle: saline); 116 % of control (dose: 0.9 mg/kg/injection, vehicle: saline); 123 % of control (dose: 2.5 mg/kg/injection, vehicle: saline); 96 % of control (dose: 185.0 micrograms/kg/injection, vehicle: saline). Also, the T/C is 95 % of control (dose: 375.0 micrograms/kg/injection, vehicle: saline); 100 % of control (dose: 750.0 micrograms/kg/injection, vehicle: saline); 100 % of control (dose: 1500.0 micrograms/kg/injection, vehicle: saline); 97 % of control (dose: 3000.0 micrograms/kg/injection, vehicle: saline).
For the molecule `NC1=NCc2c(sc3c2CCCC3)N1`, the T/C is 94 % of control under setting [5], 94 % of control under setting [6], 96 % of control under setting [1] and 93 % of control under setting [2].
Regarding `O=C1CCC(=O)N1CO`, the T/C is 93 % of control under setting [7]; 101 % of control under setting [8]; 87 % of control under setting [9]; 100 % of control under setting [10]; 97 % of control under setting [11].
As for `COC(=O)NC1C(C)OC(OC2C/C=C(/C)C3C=CC4C(OC5CC(OC6CC(O)C(OC7CC(O)C(OC)C(C)O7)C(C)O6)C(O)C(C)O5)C(C)CC(C)C4C3(C)/C(O)=C3\C(=O)OC4(CC(C)C(CO)=CC4/C=C\2C)C3=O)CC1(C)[N+](=O)[O-]` (centres undefined), the T/C reads like this: under setting [6], 105 % of control; under setting [1], 100 % of control; under setting [2], 87 % of control; under setting [3], 100 % of control.
As to `O=C1C(=O)c2cccnc2-c2ncccc21`, the T/C was 101 % of control (dose: 0.38 mg/kg/injection, vehicle: Klucel (hydroxypropylcellulose) (HPC)); 109 % of control (dose: 0.75 mg/kg/injection, vehicle: Klucel (hydroxypropylcellulose) (HPC)); 104 % of control (dose: 1.5 mg/kg/injection, vehicle: Klucel (hydroxypropylcellulose) (HPC)); 105 % of control (dose: 3.0 mg/kg/injection, vehicle: Klucel (hydroxypropylcellulose) (HPC)); 110 % of control (dose: 6.0 mg/kg/injection, vehicle: Klucel (hydroxypropylcellulose) (HPC)).
`Cc1nc2ccccc2c(N)c1-c1cc(C)c2c(C)nc3ccccc3c2n1`: the T/C under setting [12] was 97 % of control; the T/C under setting [5] was 91 % of control; the T/C under setting [6] is 90 % of control and 94 % of control and 101 % of control; the T/C under setting [1] is 92 % of control and 98 % of control; the T/C under setting [2] is 96 % of control and 100 % of control; the T/C under setting [3] was 99 % of control. The T/C under setting [4] was 106 % of control.
Take `CS(=O)(=O)OCCCCOS(C)(=O)=O`: the T/C is, setting by setting: under setting [13], 100 % of control; under setting [14], 104 % of control.
Regarding `O=C(Nc1cccc(NC(=O)c2nn[nH]n2)n1)c1nn[nH]n1`, the T/C runs as follows: under setting [1], 99 % of control; under setting [2], 102 % of control; under setting [3], 94 % of control.
Take `CO[C@@]12[C@@H]3N[C@@H]3CN1C1=C(C(=O)C(N3CCCC3)=C(C)C1=O)[C@@H]2COC(N)=O`: the T/C was 269 % of control under setting [13] and 183 % of control under setting [14].
Consider `Cc1cc2c(=O)cc(-c3ccccc3)oc2c(C(=O)O)c1C`, for which the T/C is, setting by setting: (dose: 31.25 mg/kg/injection, vehicle: saline with Tween-80) 98 % of control; (dose: 62.5 mg/kg/injection, vehicle: saline with Tween-80) 93 % of control; (dose: 125.0 mg/kg/injection, vehicle: saline with Tween-80) 113 % of control.
Take `CC1(C)CC(OS(C)(=O)=O)CC(C)(C)N1O`: the T/C (dose: 18.75 mg/kg/injection, vehicle: Klucel (hydroxypropylcellulose) (HPC)) was 99 % of control; the T/C (dose: 37.5 mg/kg/injection, vehicle: Klucel (hydroxypropylcellulose) (HPC)) is 100 % of control; the T/C (dose: 75.0 mg/kg/injection, vehicle: Klucel (hydroxypropylcellulose) (HPC)) was 102 % of control; the T/C (dose: 150.0 mg/kg/injection, vehicle: Klucel (hydroxypropylcellulose) (HPC)) was 102 % of control.
For the molecule `O=c1[nH]cnc2c1cnn2CN1CCOCC1`, the T/C is 99 % of control under setting [6], 101 % of control under setting [1], 98 % of control under setting [2] and 112 % of control under setting [3].
As for `CCOC(=O)Nc1cc2c(c(N)n1)N=C(c1ccccc1)CO2`, the T/C reads like this: under setting [7], 101 % of control; under setting [8], 107 % of control; under setting [9], 109 % of control; under setting [10], 105 % of control.
For `N#CC1C(=O)NC(=O)C(C#N)C1C(Cl)(Cl)Cl` (centres undefined), the T/C is 94 % of control under setting [1] and 95 % of control under setting [2].
Take `COC1=C(OC)C(=O)C(C(=O)CCCCC(=O)O)=C(C)C1=O`: the T/C was 100 % of control under setting [15]; 98 % of control and 105 % of control under setting [7]; 92 % of control and 97 % of control under setting [8]; 91 % of control under setting [9]; 91 % of control and 97 % of control under setting [10]; 95 % of control under setting [11].
As for `O=C(NCc1ccccc1)C1C(=O)C(=O)N(Cc2ccccc2)C1=O` (centres undefined), the T/C under setting [1] is 92 % of control; the T/C under setting [2] was 102 % of control; the T/C under setting [3] is 100 % of control; the T/C under setting [4] was 100 % of control; the T/C (dose: 800.0 mg/kg/injection, vehicle: Klucel (hydroxypropylcellulose) (HPC)) is 96 % of control.
Turning to `O=C1N2CCNc3ccccc3C(c3ccccc3)N1CC2` (centres undefined), the T/C was 117 % of control under setting [12], 103 % of control under setting [5] and 106 % of control under setting [6].
Regarding `c1ccc(P(CCNCCP(c2ccccc2)c2ccccc2)c2ccccc2)cc1`, the T/C under setting [15] was 88 % of control, the T/C under setting [7] was 92 % of control and the T/C under setting [8] is 90 % of control.
For `NC(C(=O)O)/C1=C/CCCCCC1` (centres undefined), the T/C reads like this: under setting [6], 100 % of control; under setting [1], 98 % of control; under setting [2], 100 % of control; under setting [3], 111 % of control; under setting [4], 103 % of control.
On to `Cc1nn(-c2ccccn2)c2ncnc(N)c12`, for which the T/C under setting [16] is 106 % of control, the T/C under setting [17] is 102 % of control and the T/C under setting [18] is 86 % of control.
For `N=C1C=CC2C(=Nc3ccccc3[N+]2=O)N1Cc1ccncc1` (centres undefined), the T/C runs as follows: (dose: 18.75 mg/kg/injection, vehicle: saline with Tween-80) 95 % of control; under setting [16], 93 % of control; under setting [17], 91 % of control; under setting [18], 87 % of control; (dose: 300.0 mg/kg/injection, vehicle: saline with Tween-80) 87 % of control.
As for `CC/C(=C(\c1ccccc1)c1ccc(OCCN(C)C)cc1)c1ccccc1`, the T/C was 101 % of control under setting [5]; 107 % of control under setting [6]; 89 % of control and 103 % of control under setting [1].
Turning to `COc1cc(N2C(=O)C(=O)C(C(C)=O)C2=O)c(OC)cc1Cl` (centres undefined), the T/C is 102 % of control under setting [1], 102 % of control under setting [2], 101 % of control under setting [3] and 102 % of control under setting [4].
In the case of `Clc1ccccc1C(Cc1c(Cl)cccc1Cl)Cn1ccnc1` (centres undefined), the T/C under setting [14] is 100 % of control, the T/C under setting [15] was 101 % of control, the T/C under setting [7] is 101 % of control and the T/C under setting [8] is 93 % of control.
